The values below come from patent publication US7148231B2, “[6,7-Bis(2-methoxy-ethoxy)-quinazolin-4-yl]-(3-ethynyl-phenyl)amine hydrochloride polymorph” (Hoffmann-La Roche Inc., priority 2003, dated 2006).

Read-outs that look alike come from different tables or passages of the source.

The conditions of data set [1]: polymorphs described in WO 01/34574; cited from earlier work.
Data set [2] can be described thus: Solubility after 20 min equilibration at 20° C. The class given is physicochemical. Particulars: hydrochloride; for solubility in aqueous buffer (pH 1): aqueous buffer solution pH 1, 20 min equilibration at 20° C.; for solubility in water: 20 min equilibration at 20° C. The procedure:
The solubility of polymorphs A, B, and E measured after 20 min equilibration at 20° C. in either water or aqueous buffer solution (pH 1) are compiled the following table.: […]

The conditions of data set [3]: polymorphs described in WO 01/34574; cited from earlier work. The source holds these as a separate data set.
For data set [4] the following is noted: polymorphs described in WO 01/34574; cited from earlier work. This is another data set of the same source.
A short description of data set [5]: Thermodynamic stability (melting point, heat of solution, equilibration experiments in suspension). The class given is physicochemical. The settings on record: comparison of polymorphs E, A and B; hydrochloride. As for the experimental part: The thermodynamic stability of the individual crystalline polymorphs E, A and B of [6,7-Bis(2-methoxy-ethoxy)-quinazolin-4-yl]-(3-ethynyl-phenyl)amine hydrochloride were measured according to methods known in the art, e.g., from Byrn (Byrn, S. R., Pfeiffer, R. R., Stowell, J. G., “Solid-State Chemistry of Drugs”, SSCI Inc., West Lafayette, Ind., 1999).

The nature of the next data set: Dissolution rate. The class given is physicochemical. Particulars: compared with polymorph B.

Consider `C#Cc1cccc(Nc2ncnc3cc(OCCOC)c(OCCOC)cc23)c1.Cl` [polymorph A, [6,7-Bis(2-methoxy-ethoxy)-quinazolin-4-yl]-(3-ethynyl-phenyl)amine hydrochloride], for which the dissolution rate result in data set [1] is “better solubility and dissolution rate than polymorph B”. Further, in data set [2], the “solubility in aqueous buffer (pH 1)” value is listed as 0.017% and the solubility in water was 0.194%. Further, the solubility entry in data set [3] is “better solubility and dissolution rate than polymorph B”.
Take `C#Cc1cccc(Nc2ncnc3cc(OCCOC)c(OCCOC)cc23)c1.Cl` [polymorph B, [6,7-Bis(2-methoxy-ethoxy)-quinazolin-4-yl]-(3-ethynyl-phenyl)amine hydrochloride]: the thermodynamic stability result in data set [4] is “thermodynamically more stable than polymorph A”; in data set [5], “more stable than polymorphs E and A”. Besides, the “solubility in aqueous buffer (pH 1)” value in data set [2] was found to be 0.003%. Also, the solubility in water in data set [2] is reported as 0.098%.
For `C#Cc1cccc(Nc2ncnc3cc(OCCOC)c(OCCOC)cc23)c1.Cl` [polymorph E, [6,7-Bis(2-methoxy-ethoxy)-quinazolin-4-yl]-(3-ethynyl-phenyl)amine hydrochloride], in data set [2], the “solubility in aqueous buffer (pH 1)” value was determined as 0.011% and the solubility in water is recorded as 0.191%. Further, in “Dissolution rate”, the dissolution rate result was “better solubility and dissolution rate than the known polymorph B”. The thermodynamic stability entry in data set [5] is on record as “thermodynamically more stable than polymorph A”.
